Reference: patent US8993593B2, “N-(4-(6-fluoro-3,4-dihydroisoquinolin-2(1H)-yl)-2,6-dimethylphenyl)-3,3-dimethylbutanamide as potassium channel modulators” (Valeant Pharmaceuticals International, priority 2006, dated 2015)

Key:
hERG = hERG (Homo sapiens, UniProt Q12809); experiment: in vitro
KCNQ4 = KCNQ4 (Homo sapiens, UniProt P56696); experiment: Two-electrode voltage-clamp in Xenopus laevis oocytes, KCNQ4; format: cell-based
Method: Female Xenopus laevis extracted ovaries were purchased from eNASCO (LM00935MX, eNASCO Fort Atkinson, Wis.). […] Approximately 50 nl cRNA (about 50 ng) was injected for KCNQ1, KCNQ4, and KCNQ5 using a Nanoject microinjector (Drummond, Broomall, Pa., USA). For co-expression of KCNQ2 and KCNQ3 and of KCNQ1 and KCNE1, cRNA's were mixed in equal molar ratios before injection of approximately 50 nl. […] Oocytes were kept in Culture Barth solution at 19° C. which was changed daily and currents were recorded after 3 to 5 days.
KCNQ channel currents expressed in Xenopus laevis oocytes were recorded using a two-electrode voltage-clamp. […] The oocytes were placed in custom built perfusion chambers connected to a continuous flow system and impaled with a current electrode and a voltage-clamp electrode pulled from borosilicate glass on a Flaming/Brown Micropipette Puller (Sutter Instruments Co, Novato, Calif., USA).
All compounds were dissolved in DMSO to obtain concentrated stock solutions. On the day of electrophysiological experiments the stock solutions were thawed and diluted in recording solution to their final concentrations. The final DMSO concentration never exceeded 0.1%. Compound delivery was performed using a custom built multi-barrel apparatus connected to the flow system.
Data were acquired by means of an Axograph X software (Axograph Scientific, Sydney, AU) and analyzed using Graph Pad Prism (GraphPad Software Inc., CA, USA). […]
After steady channel current was recorded in the presence of Retigabine at its EC75, recorded oocyte was washed with the recording solution until its steady current returned to its normal level without the presence of any drugs. Then the channel steady current was recorded in the presence of the test compound at its EC75. The percent efficacy was then expressed as: % efficacy=(C2/C 1)×100 where C2 is the recorded steady current in the presence of follow-on compound at its EC75 and C1 is the recorded steady current in the presence of Retigabine at its EC75.

[1] = test system: rat MES model of epilepsy; experiment: Maximal electroshock seizure (MES) test, rat; format: in vivo; settings: po; rat MES model, dosed orally 1 hour prior to testing; read-out: ED50, inhibition of seizures
From the text: The MES testing protocol is based on procedures established at the National Institute of Neurological Disorders and Stroke in conjunction with the Anticonvulsant Screening Program (ASP) at the University of Utah (White, H. S., Woodhead, J. H., Wilcox, K. S., Stables, J. P., Kupferberg, H. J and Wolf, H. H. 2002. “General Principles: Discovery and Preclinical Development of Antiepileptic Drugs,” in Antiepileptic Drugs, 5th Edition, R. H. Levy, ed.; R. H. Mattson, B. S. Meldrum, and E. Perucca. Philadelphia, Lippincott Williams & Wilkins.), The goal of the test rapid identification and characterization of the in vivo anticonvulsant activity of any compounds that have been shown active in PC-12 cellular based Rb^+ efflux assay.
Adult male CF-I albino mice (18-25 g, Charles River Laboratories) are exclusively used for in-house MES screen of compounds. Male Sprague-Dawley albino rats (100-125 g, Charles River Laboratories) are also used to test anticonvulsant compounds. Variability of test outcomes is reduced by using animals of the same sex, age, and weight. Animals are permitted to rest and recover from transit for at least 48 hr prior to experimentation. Animals are used for AED testing only once. In some instances, the animals may be anesthetized prior to blood collection and/or whole brain extraction for pharmacokinetic assay. All animals are maintained and handled as outlined in standard animal care guidelines.
In the experiments, testing compounds are prepared as suspensions in 0.5% methyl cellulose (Sigma, Cat #M0512, Viscosity 4000 cP at 20° C.) in water, regardless of solubility. Dry powder compounds are initially ground with a glass rod in a test tube in several drops of methyl cellulose to create a paste and to break down any large chunks. After several minutes of grinding, the volume of the suspension is increased to the final concentration desired. The suspension is then sonicated using a Branson sonicator model 3510 in a water bath at room temperature for 15 minutes. Compound suspensions are further vortexed prior to animal dosing. In some of the cases, DMSO is used to initially solubilize compounds in small volumes and then this solution is added to the 0.5% methyl cellulose solution, in order to create more even and less aggregated compound suspensions. The final concentration of DMSO is 3.75%, an amount with no apparent toxicity or neuroprotective effects in our usual rotarod and MES tests. Methyl cellulose/DMSO compound suspensions are identically prepared for intraperitoneally (i.p.) to mice or orally (p.o.) to rat dosing.
Initially the animals are weighed with an electronic scale and then marked. Data recording sheets are generated for each compound assessment. Mice or rats are dosed with the compound suspension at 0.01 mL/g of body weight. The typical injection volume range is between 180-250 μl for mice. Compounds are dosed by i.p. to mice using a 25 or 22 gauge needle, depending on the viscosity of the suspension. Rats are p.o. dosed using a flexible feeding tube, typically starting at a compound dose of 5 mg/kg.
A Rodent Electroconvulsive Stimulator (Model 200, Hamit-Darvin-Freesh, Snow Canyon Clinic, Ivins, Utah) is used for MES testing. A 60-Hz alternating current (50 mA for mice; 150 mA for rats) is delivered for 0.2 seconds through corneal electrodes to the mice. […] Animals are monitored for hind limb tonic extension as the end point for this test. Current delivery is recorded as a measure of overall seizure-induction potential. […]

Sequence of hERG (Q12809 whole entry): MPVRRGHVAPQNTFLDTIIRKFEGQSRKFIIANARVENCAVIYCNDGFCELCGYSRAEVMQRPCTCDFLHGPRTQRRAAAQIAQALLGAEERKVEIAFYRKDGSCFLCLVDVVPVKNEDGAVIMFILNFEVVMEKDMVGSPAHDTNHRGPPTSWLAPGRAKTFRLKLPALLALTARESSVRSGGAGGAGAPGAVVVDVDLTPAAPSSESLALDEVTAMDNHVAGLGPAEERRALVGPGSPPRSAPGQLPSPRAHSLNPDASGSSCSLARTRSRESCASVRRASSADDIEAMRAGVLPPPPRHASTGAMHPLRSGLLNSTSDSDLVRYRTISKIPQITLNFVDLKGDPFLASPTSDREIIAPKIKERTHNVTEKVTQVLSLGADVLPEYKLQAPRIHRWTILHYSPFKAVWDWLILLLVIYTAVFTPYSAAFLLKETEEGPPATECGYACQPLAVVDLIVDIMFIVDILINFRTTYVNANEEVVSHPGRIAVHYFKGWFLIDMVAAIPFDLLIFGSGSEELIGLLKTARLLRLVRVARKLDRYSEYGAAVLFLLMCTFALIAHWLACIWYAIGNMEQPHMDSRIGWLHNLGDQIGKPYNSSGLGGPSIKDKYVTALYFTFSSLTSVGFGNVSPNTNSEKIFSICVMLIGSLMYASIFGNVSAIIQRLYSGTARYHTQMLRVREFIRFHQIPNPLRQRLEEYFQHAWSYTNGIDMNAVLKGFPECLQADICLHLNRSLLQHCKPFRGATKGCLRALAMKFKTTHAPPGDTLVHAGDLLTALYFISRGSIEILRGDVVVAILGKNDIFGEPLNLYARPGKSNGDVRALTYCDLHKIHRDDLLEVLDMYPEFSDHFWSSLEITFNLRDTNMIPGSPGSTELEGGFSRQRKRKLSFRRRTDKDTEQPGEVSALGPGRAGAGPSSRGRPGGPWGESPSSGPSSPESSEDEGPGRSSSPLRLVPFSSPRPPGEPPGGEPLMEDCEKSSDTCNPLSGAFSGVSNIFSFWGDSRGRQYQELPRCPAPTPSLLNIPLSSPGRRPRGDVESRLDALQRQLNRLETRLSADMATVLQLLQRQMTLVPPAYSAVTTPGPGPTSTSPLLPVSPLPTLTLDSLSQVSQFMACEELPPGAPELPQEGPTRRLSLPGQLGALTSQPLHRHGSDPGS

`Cc1cc(N2CCc3cc(F)ccc3C2)cc(C)c1NC(=O)CC(C)(C)C` [compound A, N-[4-(6-fluoro-3,4-dihydro-1H-isoquinolin-2-yl)-2,6-dimethylphenyl]-3,3-dimethyl butanamide] was tested, and the inhibition at 30 µM (hERG) was -0.1%, the EC50 (KCNQ4) was 630 nM and the “KCNQ4 Efficacy Relative to Retigabine (%)” value (KCNQ4; oocyte expression, at EC75) was 100%. The ED50 [1] was 1.1 mg/kg.
